Results published in patent publication US6423519B1, “Compositions and methods for inhibiting fungal growth” (GPC Biotech Inc., priority 1998, dated 2002).
Read-outs that look alike come from different tables or passages of the source. Peptide text beside a SMILES is read from it.

Columns and labels:
C. albicans GGPTase = molecular target: T1, C. albicans GGPTase (Candida albicans, UniProt Q8J224+Q9Y764); test: biochemical
T1 sequence (Q9Y764 1-398): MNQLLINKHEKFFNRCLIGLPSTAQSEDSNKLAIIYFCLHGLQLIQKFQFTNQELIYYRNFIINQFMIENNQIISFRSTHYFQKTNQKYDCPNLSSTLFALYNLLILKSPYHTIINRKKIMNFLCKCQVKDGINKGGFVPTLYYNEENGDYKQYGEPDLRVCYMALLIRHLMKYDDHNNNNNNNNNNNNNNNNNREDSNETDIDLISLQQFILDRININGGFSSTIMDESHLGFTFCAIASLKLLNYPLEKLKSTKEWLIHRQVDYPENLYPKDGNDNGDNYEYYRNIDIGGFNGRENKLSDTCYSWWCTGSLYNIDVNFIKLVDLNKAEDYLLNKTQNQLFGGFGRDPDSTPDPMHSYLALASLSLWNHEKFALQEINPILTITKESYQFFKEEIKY
T1 sequence (Q8J224 1-306): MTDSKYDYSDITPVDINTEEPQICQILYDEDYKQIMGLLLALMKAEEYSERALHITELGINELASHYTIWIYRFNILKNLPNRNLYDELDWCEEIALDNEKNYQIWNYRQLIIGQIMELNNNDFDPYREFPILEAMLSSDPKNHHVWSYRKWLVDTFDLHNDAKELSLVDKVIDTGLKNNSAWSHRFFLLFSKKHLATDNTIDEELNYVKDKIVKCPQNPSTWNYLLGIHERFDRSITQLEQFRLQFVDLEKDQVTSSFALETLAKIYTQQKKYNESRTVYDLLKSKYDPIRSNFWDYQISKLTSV
Method: Plate test compounds (10 μL per well) at predetermined concentration in 50% DMSO. For background control (blank) and reaction control (negative), add 10 μL of 200 μM GGPP and 10 μL 50% DMSO, respectively. Prepare assay buffer: 50 mM Tris, pH7.5, 20 mM KCL, 5 mM MgCl2, 5 μM ZnCl2, 0.5 mM Zw(3-14), 2 mM DTT and 0.1 mg/mL BSA.
Add 20 μL of C. albicans GGPTase and ^3H-GGPP in assay buffer to test compound. Preincubate enzyme and ^3H-GGPP with test compound for 15 minutes at room temperature. Add 20 μL C. albicans Rho in assay buffer. Incubate for 30 minutes at room temperature. Final assay conditions are 2 nM C. albicans GGPTase, 250 nM ^3H-GGPP and 250 nM C. albicans Rho.
Add 100 μL 15 mM GGPP, 50 mM Tris, pH7.0 and 2% BSA to quench reaction. Transfer reaction to Nickel chelate FlashPlate. Allow his-tagged C. albcians Rho to capture onto plate. Rinse plate 1× with 200 μL 20 mM Tris, pH7.0. Read in TOPCOUNT.

human GGTase = human GGTase (Homo sapiens, UniProt P53609); test: Human GGTase inhibition (Hu GG); format: biochemical
From the text: As described below, a variety of different compounds were synthesized and tested for inhibitory activity against human and Candida GGTase. Exemplary synthesis schemes for generating prenyltransferase inhibitors useful in the methods and compositions of the present invention are shown in FIGS. 1-56. Tables 1-5 provide Structure-Activity relationship (SAR) data for several different classes of prenyltransferase inhibitors.

Hu FT = Hu FT (Homo sapiens, UniProt P49356); test: Human FT inhibition (Hu FT); format: biochemical; conditions: Table 3 Piperidine Analogs
[1] = Table 3 Piperidine Analogs, read-out: IC50 (nM) Ca GG
[2] = Table 3 Piperidine Analogs, read-out: IC50 (nM) Hu GG
[3] = Table 1, read-out: IC50 (nM) Hu GG
[4] = Table 1 Peptide Analogs, read-out: IC50 (nM) Hu GG
[5] = read-out: IC50 (nM) Ca GG, Table 1
[6] = Table 1, read-out: IC50 (nM) Ca GG
[7] = Table 1 Peptide Analogs, read-out: IC50 (nM) Ca GG
[8] = Table 5, read-out: IC50 (nM) Candida
[9] = Table 5, read-out: IC50 (nM) Human

IC50 (C. albicans GGPTase; [1]) [nM]	IC50 (human GGTase; [2]) [nM]	IC50 (human GGTase; [3]) [nM]	IC50 (human GGTase; [4]) [nM]	SMILES	IC50 (C. albicans GGPTase) [nM]	other results
< 10	> 1000	–	–	N[C@@H](CS)C(=O)N1CCC(C(=O)N[C@@H]2C[C@H]2c2ccccc2)(c2ccccc2)CC1 (relative stereo) [Compound 53v]	–	IC50 (Hu FT): > 1000 nM
< 100	< 100	–	–	CC(C)C[C@H](NC(=O)C1(c2ccccc2)CCN(C(=O)[C@@H](N)CS)CC1)C(=O)O [Compound 53a]	–	–
< 100	> 1000	–	–	N[C@@H](CS)C(=O)N1CCC(C(=O)NCCCCc2ccccc2)(c2ccccc2)CC1 [Compound 53aa]	–	–
< 100	< 1000	–	–	N[C@@H](CS)C(=O)N1CCC(C(=O)NCc2ccccc2-c2ccccc2)(c2ccccc2)CC1 [Compound 53b]	–	–
< 100	> 1000	–	–	N[C@@H](CS)C(=O)N1CCC(C(=O)NCc2ccccc2)(c2ccccc2)CC1 [Compound 53bb]	–	–
< 100	< 100	–	–	CC(C)CCNC(=O)C1(c2ccccc2)CCN(C(=O)[C@@H](N)CS)CC1 [Compound 53c]	–	–
< 500	> 1000	–	–	N[C@@H](CS)C(=O)N1CCC(C(=O)NCCc2cccs2)(c2ccccc2)CC1 [Compound 53d]	–	–
> 1000	> 1000	–	–	CCOC(=O)N1CCC(NC(=O)C2(c3ccccc3)CCN(C(=O)[C@@H](N)CS)CC2)CC1 [Compound 53l]	–	–
> 1000	> 1000	–	–	N[C@@H](CS)C(=O)N1CCC(C(=O)NCCc2ccc(S(N)(=O)=O)cc2)(c2ccccc2)CC1 [Compound 53m]	–	–
< 500	> 1000	–	–	N[C@@H](CS)C(=O)N1CCC(C(=O)NC2CCCCC2)(c2ccccc2)CC1 [Compound 53s]	–	–
< 100	> 1000	–	–	N[C@@H](CS)C(=O)N1CCC(C(=O)NCC2CCCO2)(c2ccccc2)CC1 (some centres unmarked) [Compound 53t]	–	–
< 100	< 500	–	–	N[C@@H](CS)C(=O)N1CCC(C(=O)NCC(c2ccccc2)c2ccccc2)(c2ccccc2)CC1 [Compound 53y]	–	–

Continued, molecule first:

SMILES	IC50 (C. albicans GGPTase; [1]) [nM]	IC50 (human GGTase; [2]) [nM]	IC50 (human GGTase; [3]) [nM]	IC50 (human GGTase; [4]) [nM]	IC50 (C. albicans GGPTase) [nM]	other results
CC(C)C[C@H](NC(=O)[C@H](Cc1cccc2ccccc12)NC(=O)[C@H](CCO)NC(=O)[C@@H](N)CS)C(=O)O [Compound 5a] (HELM PEPTIDE1{C.[O=C([C@H](CCO)N[*:1])[*:2]].[O=C([C@H](Cc1cccc2ccccc12)N[*:1])[*:2]].L}$$$$V2.0)	–	–	< 500	< 500	< 500	–
CC(C)C[C@H](NC(=O)[C@H](Cc1cccc2ccccc12)NC(=O)[C@H](CN)NC(=O)[C@@H](N)CS)C(=O)O [Compound 5b] (HELM PEPTIDE1{C.[NC[C@H](N[*:1])C(=O)[*:2]].[O=C([C@H](Cc1cccc2ccccc12)N[*:1])[*:2]].L}$$$$V2.0)	–	–	< 500	< 500	< 10	IC50 (C. albicans GGPTase; [5]): < 10 nM
CC(C)C[C@H](NC(=O)[C@H](Cc1cccc2ccccc12)NC(=O)[C@@H](N)CNC(=O)[C@@H](N)CS)C(=O)O [Compound 5c] (HELM PEPTIDE1{[N[C@@H](CN[*:3])C(=O)[*:2]].[O=C([C@H](Cc1cccc2ccccc12)N[*:1])[*:2]].L}|PEPTIDE2{C}$PEPTIDE1,PEPTIDE2,1:R3-1:R2$$$V2.0)	–	–	> 1000	> 1000	–	IC50 (C. albicans GGPTase; [6]): < 1000 nM; IC50 (C. albicans GGPTase; [7]): < 1000 nM
CC(C)C[C@H](NC(=O)[C@H](Cc1cccc2ccccc12)NC(=O)[C@H](CC(=O)O)NC(=O)[C@@H](N)CS)C(=O)O [Compound 5d] (HELM PEPTIDE1{C.D.[O=C([C@H](Cc1cccc2ccccc12)N[*:1])[*:2]].L}$$$$V2.0)	–	–	> 1000	> 1000	> 1000	IC50 (C. albicans GGPTase; [5]): > 1000 nM
CC(C)C[C@H](NC(=O)[C@H](Cc1cccc2ccccc12)NC(=O)CCNC(=O)[C@@H](N)CS)C(=O)O [Compound 5g] (HELM PEPTIDE1{C.[bAla].[O=C([C@H](Cc1cccc2ccccc12)N[*:1])[*:2]].L}$$$$V2.0)	–	–	< 500	< 500	–	IC50 (C. albicans GGPTase; [6]): < 1000 nM; IC50 (C. albicans GGPTase; [7]): < 1000 nM
CC(C)C[C@H](NC(=O)[C@H](Cc1cccc2ccccc12)NC(=O)C[C@@H](NC(=O)[C@@H](N)CS)C(N)=O)C(=O)O [Compound 5h] (HELM PEPTIDE1{[O=C([C@H](Cc1cccc2ccccc12)N[*:1])[*:2]].L}|PEPTIDE2{C.[dD].[am]}$PEPTIDE1,PEPTIDE2,1:R1-2:R3$$$V2.0)	–	–	< 500	< 500	–	IC50 (C. albicans GGPTase; [6]): < 1000 nM; IC50 (C. albicans GGPTase; [7]): < 1000 nM
CC(C)C[C@H](NC(=O)[C@H](Cc1cccc2ccccc12)NC(=O)CNC(=O)[C@@H](N)CS)C(=O)O [Compound 5i] (HELM PEPTIDE1{C.G.[O=C([C@H](Cc1cccc2ccccc12)N[*:1])[*:2]].L}$$$$V2.0)	–	–	< 500	< 500	< 500	–
CC(C)C[C@H](NC(=O)[C@H](Cc1ccc2ccccc2c1)NC[C@@H](NC[C@@H](N)CS)C(C)C)C(=O)O [Compound 9]	–	–	< 100	< 100	–	IC50 (C. albicans GGPTase; [6]): < 1000 nM; IC50 (C. albicans GGPTase; [7]): < 1000 nM; IC50 (C. albicans GGPTase; [8]): < 1000 nM; IC50 (human GGTase; [9]): < 100 nM
CC(C)C[C@H](NC(=O)c1ccc(NC[C@@H](N)CS)cc1-c1ccccc1)C(=O)O [Compound 17]	–	–	–	–	–	IC50 (C. albicans GGPTase; [8]): < 10 nM; IC50 (human GGTase; [9]): < 10 nM
CC(C)C[C@@H](C(=O)O)N(C)C(=O)c1ccc(NC[C@@H](N)CS)cc1-c1ccccc1 [Compound 19]	–	–	–	–	–	IC50 (C. albicans GGPTase; [8]): < 10 nM; IC50 (human GGTase; [9]): < 10 nM
N[C@@H](CS)C(=O)N1CCC(C(=O)NCc2ccccc2)CC1 [Compound 59]	–	–	–	–	> 1000	IC50 (human GGTase): > 1000 nM
N[C@@H](CS)C(=O)N1CCC(C(=O)N(Cc2ccccc2)c2ccccc2)CC1 [Compound 60]	–	–	–	–	> 1000	IC50 (human GGTase): > 1000 nM
N[C@@H](CS)C(=O)N1CCC(C(=O)N(Cc2ccccc2)Cc2ccccc2)CC1 [Compound 61]	–	–	–	–	> 1000	IC50 (human GGTase): > 1000 nM
N[C@@H](CS)C(=O)N1CCC(C(=O)N(CCc2ccccc2)Cc2ccccc2)CC1 [Compound 62]	–	–	–	–	< 200	IC50 (human GGTase): > 1000 nM
CC1(C(=O)NCc2ccccc2)CCN(C(=O)[C@@H](N)CS)CC1 [Compound 63]	–	–	–	–	< 500	IC50 (human GGTase): > 1000 nM
N[C@@H](CS)C(=O)N1CCC(Cc2ccccc2)(C(=O)NCc2ccccc2)CC1 [Compound 64]	–	–	–	–	< 100	IC50 (human GGTase): > 1000 nM
CC(C)/C=C1\NC(=O)N(C2(c3ccccc3)CCN(C(=O)C(N)CS)CC2)C1=O (centres unmarked) [Compound 70]	–	–	–	–	< 50	IC50 (human GGTase): > 1000 nM
NC[C@H](NC(=O)[C@@H](N)CS)C(=O)NCc1ccc2c(c1)OCO2 [Compound 89d]	–	–	> 1000	> 1000	–	IC50 (C. albicans GGPTase; [6]): > 1000 nM; IC50 (C. albicans GGPTase; [7]): > 1000 nM
NC[C@H](NC(=O)[C@@H](N)CS)C(=O)NCC(=O)Nc1ccc2ccccc2c1 [Compound 89e] (HELM PEPTIDE1{C.[NC[C@H](N[*:1])C(=O)[*:2]].G.[c1ccc2cc(N[*:1])ccc2c1]}$$$$V2.0)	–	–	> 1000	> 1000	–	IC50 (C. albicans GGPTase; [6]): > 1000 nM; IC50 (C. albicans GGPTase; [7]): > 1000 nM
NC[C@H](NC(=O)[C@@H](N)CS)C(=O)N1CCC(Cc2ccccc2)CC1 [Compound 89f]	–	–	> 1000	> 1000	–	IC50 (C. albicans GGPTase; [6]): < 1000 nM; IC50 (C. albicans GGPTase; [7]): < 1000 nM
NC[C@H](NC(=O)[C@@H](N)CS)C(=O)N1CCN(C(c2ccc(F)cc2)c2ccc(F)cc2)CC1 [Compound 89g]	–	–	> 1000	> 1000	–	IC50 (C. albicans GGPTase; [6]): < 500 nM; IC50 (C. albicans GGPTase; [7]): < 500 nM
CC(C)C[C@@H](C(=O)O)N(C)C(=O)Cn1c(=O)n(C2CCN(C(=O)[C@@H](N)CS)CC2)c2ccccc21 [Compound 93]	> 1000	> 1000	–	–	–	–
CC(C)C[C@H](NC(=O)C1(c2ccccc2)CCN(C(=O)[C@@H](N)CS)CC1)C(=O)N[C@@H](C)C(=O)N[C@@H](C)C(=O)O [Compound 99b] (HELM PEPTIDE1{C.[O=C(C1(c2ccccc2)CCN([*:1])CC1)[*:2]].L.A.A}$$$$V2.0)	< 200	> 500	–	–	–	–
